# Measured values from patent publication US20210254056A1, “IDENTIFICATION AND TARGETED MODULATION OF GENE SIGNALING NETWORKS” (CAMP4 THERAPEUTICS CORPORATION, priority 2017, published 2021).
# “Also recorded” adds a separate entry of the source.
# Tests used:
# [1] = tested on: COL1A1 gene; test: RNA-seq gene expression after compound treatment, COL1A1; assay type: cell-based, human; settings: FIG. 11B; gene implicated in liver fibrosis
# Source text: FIG. 11B are ChIP-seq results for an insulated neighborhood and RNA-seq results showing modulation of the COL1A1 gene implicated in liver fibrosis by BIO inhibitor (MT-209), a Wnt pathway agonist.
# (§1) In certain embodiments, hepatocytes are used to map a healthy cell population. The liver is a source of many known genetic disease and provides homogeneous primary tissue with high availability. Additionally, most toxicology is done in the liver, which provides drug toxicity insights. In some embodiments, different stimuli, such as those described herein, are contacted with a cell to induce various GSC responses in the hepatocytes. For example, small molecules may be administered to identify liver disease genes whose expression is modulated by the small molecules. These responses provide an understanding of GSCs in liver cells: genomic positions, protein composition, and genome architecture. Alternatively, blood or muscle tissue may be mapped as a healthy population, as a disease model, or as primary disease cells. About 20 million cells are generally needed for accurate ChIP (chromatin immunoprecipitation) analysis. Therefore, in some embodiments, erythroid cells may be used to develop a conditionally immortalized cell system to produce a sufficient biomass for ChIP analysis of a cell with a disease phenotype.
# [2] = tested on: hepatocytes; settings: {}
# [3] = tested on: FKBP5; test: RNA-seq gene expression after compound treatment, insulated neighborhood including FKBP5; assay type: cell-based, human; settings: FIG. 11A; gene implicated in immunosuppression
# Source text: as §1
# [4] = tested on: PCSK9 gene; test: RNA-seq gene expression after compound treatment, PCSK9; assay type: cell-based, human; settings: FIG. 11C and FIG. 13; gene implicated in hypercholesterolemia
# Source text: as §1
# [5] = tested on: SLC37A4 gene; test: RNA-seq gene expression after compound treatment, insulated neighborhood containing SLC37A4; assay type: cell-based, human; settings: FIG. 8; gene implicated in glycogen storage disease 1b
# [6] = tested on: primary human hepatocytes; test: RNA-seq of primary human hepatocytes treated with 39 small molecules (pilot and validation)
# [7] = tested on: normal cord blood erythroblast cells; test: qRT-PCR after constitutive (pLKO) shRNA knockdown in normal CD34+ cells; assay type: cell-based, human; settings: for RQ, ALAS2: relative quantification of ALAS2 expression vs control sh_NT; for RQ, BCLXL: relative quantification of BCLXL expression vs control sh_NT; for RQ, MYC: relative quantification of MYC expression vs control sh_NT; for RQ, P53: relative quantification of P53 expression vs control shNT; for RQ, RPL11: relative quantification of RPL11 expression vs control shNT; for RQ, p21: relative quantification of p21 expression vs control sh_NT; for RQ, p53: relative quantification of p53 expression vs control sh_NT; for increase in expression of p21: pLKO constitutive knockdown, compared to the level observed for the p53 knockdowns, qRT-PCR
# Experimental: Conditionally immortalized cord blood CD34+ cells were transduced with the shRNA lentiviruses using the retronectin-transduction protocol (Clontech). Puromycin selection was performed 24-48 hours post-transduction. Cells were counted to monitor cell viability. After 12 days, which allowed for a large biomass, knockdown efficiency was analyzed. qRT-PCR was used to identify changes in mRNA, and Western blot was used to determine levels of protein depletion.
# (§2) For RNA extraction, 1×10^6 cells were harvested in 500 μL of TRIZOL reagent (Thermo Scientific), and incubated for 5 minutes at room temperature. Then, 100 μL of chloroform was added to the cells, and the mixture was vortexed and then centrifuged at 12,000× gravity for 15 minutes. The aqueous phase was transferred to fresh tubes and one volume of 70% ethanol was added. The TRIZOL Plus RNA purification Kit (Thermo Scientific) was used for the remaining extraction protocol according to the manufacturer's instructions. For the conversion of RNA to cDNA the High Capacity cDNA RT kit (Thermo Scientific) was used according to the manufacturer's instructions. The cDNA was analyzed with qRT-PCR to determine the fold change of knockdown cells using Taqman Fast PCR mix and Applied Biosystems probes (Thermo Scientific).
# shRNAs targeting RPS19, p53, or RPL11 were delivered to normal cord blood erythroblast cells using either the pLKO (constitutive) and pTRIPZ (inducible) plasmids described in Example 1. The mRNA expression of the p53 pathway proteins; progenitor factor GATA2; and differentiation factors HBB and GATA1 were measured by qRT-PCR. Cells not transduced with a shRNA as well as cells transduced with a non-targeting shRNA served as controls.
# HBB is associated with differentiation of CD34^+ cells, and p21 is associated with the p53 pathway. […]
# To determine the effect of p53 knockdown on expression of other genes, cells were also transduced with pLKO containing p53_sh4 or p53_sh5. To determine the effect of RPS19 knockdown on expression of other genes, cells were transduced with pLKO containing RPS19_sh1, RPS19_sh2, RPS19_sh3, RPS19_sh4, RPS19_sh5, and sh_NT as a control. The relative quantifications of expression of differentiation associated genes ALAS2 and HBB, immortalization factors BCLXL and MYC, and targets of interest p53 and RPS19 are shown in Table 79.
# [8] = tested on: CB-CI-IRES-CD34+ cell line; test: qRT-PCR and knockdown efficiency of shRNAs in conditionally immortalized cord blood CD34+ cells; assay type: cell-based, human; settings: qRT-PCR; CB-CI-IRES-CD34+ cells transduced with pTRIPZ shRNA; B-ACTIN control; relative to pTRIPZ NT
# Experimental: as §2
# qRT-PCR was used to analyze expression of p53 pathway-associated genes p21, RPS19, and RPL11; differentiation marker HBB; and internal control B-ACTIN in the cord blood conditionally immortalized CD34+ (CB-CI-IRES-CD34+) cell line transduced with the pTRIPZ plasmid containing NT (Model 9), RPL11_sh1 (Model 4) and RPL11_sh2 (Model 5) for a RPL11 knockdown, and RPS19_sh1 (Model 6) and RPS19_sh2 (Model 7) for a RPS19 knockdown.
# qRT-PCR was used to determine the levels of expression of ALAS2, GAPDH, GATA1, GATA2, HBB, and p53 in differentiated CB-CI-IRES cells using GAPDH as an internal control as shown in Table 86.
# Gene expression was compared for CB-CI-IRES cells during expansion and differentiation. […] GAPDH was used as an internal control.
# The efficiency of different shRNAs were tested in a conditionally immortalized cord blood erythroblast cell system to mimic DBA. The pTRIPZ was used to transduce these cells with sh1 (dox inducible shRPS19) or sh2 (dox inducible shRPS19), and pLKO was used to transduce a group of cells with sh5 (shRPS19). qRT-PCR was used to determine the level of gene expression in RPS19 mRNA knockdown in each group of cells. The percent of knockdown is shown in Table 90 after 1 week (T1), 2 weeks (T2), and 3 weeks (T3) for each shRNA.
# [9] = tested on: TF1 RPS19 KD cells; test: Dose titration of compounds into RPS19 KD TF1 cells (p53 by qRT-PCR, viability ATP assay); assay type: cell-based; settings: after transduction with constitutive pLKO shRNA plasmid
# Experimental: The concentration of the compounds needed to observe a rescued DBA phenotype in TF1 RPS19 KD cells was determined via qRT-PCR analysis of p53 levels. […] Nine different cell lines were used. […] Cells were collected in separate tubes in a concentration of 1000 cells/μL to reach a concentration of 50,000 cells/50 μL per well. Cell were centrifuged at 1,200 rpm for 5 minutes. Then, the media was aspirated and cells were resuspended in RPMI+GCMSF medium.
# For the preparation of Dose 1 (final concentration on plate 25 μM), a 50 μM solution was made by adding 300 μL of […] to 300 μL of RPM1+GCMSF+2% DMSO (final 1% DMSO). The 50 μM solution was further diluted to 2× when added with the cells into a well, resulting in a final concentration of 25 μM. […] DMSO 1% was used for each cell type as DMSO control.
# A 96-well plate was used for analysis of each dose on each cell type. Fifty μL of each cell type and 50 μL of a diluted compound are added to the corresponding wells for a total of 100 μL RPMI+GCMSF+1% DMSO, with 50,000 cells/well. The following day, 50 μL for RNA (25,000 cells) and 50 μL for viability ATP assay (25,000 cells) were collected from each well.
# Dose titration was performed as described in Example 1. […] Phenotype rescue was determined by measuring p53 levels by qRT-PCR analysis. […]
# [10] = relative quantification of HBB expression vs control shNT, pLKO constitutive shRNA, GAPDH internal control, Table 78
# [11] = relative quantification of HBB expression vs control sh_NT, pLKO shRNA, B-ACTIN, Table 79
# [12] = pLKO constitutive shRNA, GAPDH internal control, Table 78
# [13] = relative quantification of RPS19 expression vs control shNT, pLKO constitutive shRNA, GAPDH internal control, Table 78
# [14] = relative quantification of RPS19 expression vs control sh_NT, pLKO shRNA, B-ACTIN, Table 79
compound,measurement,setting,value
O=C1Nc2cc(Br)ccc2/C1=C1/Nc2ccccc2/C1=N\O [BIO inhibitor],expression of the COL1A1 gene (RNA-seq),[1],modulation
Cn1cncc1[C@@](N)(c1ccc(Cl)cc1)c1ccc2c(c1)c(-c1cccc(Cl)c1)cc(=O)n2C [Tipifarnib],# of genes having significantly altered expression,[2],34
C[C@]12C=CC(=O)C=C1CC[C@@H]1[C@@H]2C(=O)C[C@@]2(C)[C@H]1CC[C@]2(O)C(=O)CO [prednisone],expression of FKBP5 (RNA-seq),[3],upregulates
same,expression of the PCSK9 gene (RNA-seq),[4],modulation
same,expression of the SLC37A4 gene (RNA-seq),[5],upregulation
same,significant modulation of gene expression,"[6]; RNA-seq, p-value≤0.05, primary human hepatocytes, the modulated genes are listed in the block",significantly (p-value≤0.05) modulate
same,gene upregulated by the compound,"[6]; RNA-seq, treated cells compared to vehicle control, gene named in the value",upregulate the SLC37A4 gene; also recorded: SLC37A4 was significantly upregulated; also recorded: upregulate FKPP5
same,Number (#) of genes having significantly changed expression,"[6]; pilot RNA-seq study of Example 2, significance: FPKM≥0.5, log 2(fold change)≥1, q-value ≤0.05",247
RPS19_sh1 (CTACGATGAGAACTGGTTCT; expressed or natural sequence; listed as Homo sapiens),"RQ, ALAS2","[7]; pLKO shRNA, B-ACTIN, Table 79",0.02
same,"RQ, BCLXL","[7]; pLKO shRNA, B-ACTIN, Table 79",0.34
same,"RQ, HBB",[7]; [10],0.04
same,"RQ, HBB",[7]; [11],0.00
same,"RQ, MYC","[7]; pLKO shRNA, B-ACTIN, Table 79",0.52
same,"RQ, P53",[7]; [12],1.34
same,"RQ, RPL11",[7]; [12],0.74
same,"RQ, RPS19",[7]; [13],0.59
same,"RQ, RPS19",[7]; [14],0.47
same,"RQ, p21","[7]; pLKO shRNA, B-ACTIN, Table 79",0.53
same,"RQ, p53","[7]; pLKO shRNA, B-ACTIN, Table 79",0.65
same,RQ of HBB,[8],2.28
same,RQ of RPL11,[8],1.52
same,RQ of p21,[8],1.35
"RPS19_sh4: shRNA targeting RPS19 in the constitutive pLKO plasmid, SEQ ID NO 32575 (GCTTGCTCCCTACGATGAGAA; listed as Homo sapiens)",increase in expression of p21,[7],12.8 fold
same,"RQ, ALAS2","[7]; pLKO shRNA, B-ACTIN, Table 79",0.16
same,"RQ, BCLXL","[7]; pLKO shRNA, B-ACTIN, Table 79",0.87
same,"RQ, HBB",[7]; [10],0.42
same,"RQ, HBB",[7]; [11],0.03
same,"RQ, MYC","[7]; pLKO shRNA, B-ACTIN, Table 79",1.03
same,"RQ, P53",[7]; [12],1.24
same,"RQ, RPL11",[7]; [12],1.02
same,"RQ, RPS19",[7]; [13],1.54
same,"RQ, RPS19",[7]; [14],0.43
same,"RQ, p21","[7]; pLKO shRNA, B-ACTIN, Table 79",12.78
same,"RQ, p53","[7]; pLKO shRNA, B-ACTIN, Table 79",1.74
same,Cell density,[9],"124,000 cells/mll"
"RPS19_sh5: shRNA targeting RPS19 in the constitutive pLKO plasmid, SEQ ID NO 32576 (CGGCGTCATGCCCAGCCACTT; listed as Homo sapiens)",increase in expression of p21,[7],5.8 fold
same,"RQ, ALAS2","[7]; pLKO shRNA, B-ACTIN, Table 79",1.51
same,"RQ, BCLXL","[7]; pLKO shRNA, B-ACTIN, Table 79",0.99
same,"RQ, HBB",[7]; [10],0.75
same,"RQ, HBB",[7]; [11],0.15
same,"RQ, MYC","[7]; pLKO shRNA, B-ACTIN, Table 79",1.43
same,"RQ, P53",[7]; [12],1.41
same,"RQ, RPL11",[7]; [12],1.09
same,"RQ, RPS19",[7]; [13],0.65
same,"RQ, RPS19",[7]; [14],0.15
same,"RQ, p21","[7]; pLKO shRNA, B-ACTIN, Table 79",5.75
same,"RQ, p53","[7]; pLKO shRNA, B-ACTIN, Table 79",0.74
same,Cell density,[9],"962,000 cells/mll"
